In PubChem BioAssay (NCI):
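1) Cells in 96-well plates. 2) Compound, 48 h, 5 concentrations. 3) Linear interpolation between surrounding doses. 4) Unreached endpoint = highest concentration. GI50 = concentration required for 50% inhibition of growth. TGI marks complete inhibition of growth.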

How the values were obtained:
Test in all cases: NCI tumour cell line growth inhibition, 48 h
MCF7 breast = test system: MCF7 breast
T-47D breast = test system: T-47D breast
HCT-15 colon = test system: HCT-15 colon
EKVX NSCLC = test system: EKVX NSCLC
IGROV1 ovarian = test system: IGROV1 ovarian
MDA-MB-435 = test system: MDA-MB-435
A498 renal = test system: A498 renal
HOP-92 NSCLC = test system: HOP-92 NSCLC
MOLT-4 leukemia = test system: MOLT-4 leukemia
SK-MEL-2 melanoma = test system: SK-MEL-2 melanoma
HL-60(TB) leukemia = test system: HL-60(TB) leukemia
SK-MEL-5 melanoma = test system: SK-MEL-5 melanoma
DU-145 prostate = test system: DU-145 prostate
OVCAR-3 ovarian = test system: OVCAR-3 ovarian
PC-3 prostate = test system: PC-3 prostate
U251 CNS = test system: U251 CNS
UACC-257 melanoma = test system: UACC-257 melanoma
KM12 colon = test system: KM12 colon
OVCAR-5 ovarian = test system: OVCAR-5 ovarian
NCI-H23 lung = test system: NCI-H23 lung
HS 578T breast = test system: HS 578T breast
NCI/ADR-RES ovarian = test system: NCI/ADR-RES ovarian
UO-31 renal = test system: UO-31 renal
CCRF-CEM leukemia = test system: CCRF-CEM leukemia
NCI-H460 lung = test system: NCI-H460 lung
NCI-H522 lung = test system: NCI-H522 lung
RPMI-8226 leukemia = test system: RPMI-8226 leukemia
M14 melanoma = test system: M14 melanoma
A549 NSCLC = test system: A549 NSCLC

With CCN(CCCNC(=O)Cc1cc(=O)oc2cc(N(C)C)ccc12)CCNc1ccnc2cc(Cl)ccc12 the GI50 (MCF7 breast) was 7.42 µM, the TGI (MCF7 breast) was 22.7 µM and the GI50 (T-47D breast) was 12.5 µM. For the same molecule, the TGI (T-47D breast) was 39.8 µM, the GI50 (HCT-15 colon) was 10.4 µM and the TGI (HCT-15 colon) was 29.5 µM. For the same molecule, the GI50 (EKVX NSCLC) was 22.2 µM, the TGI (EKVX NSCLC) was 70 µM and the GI50 (IGROV1 ovarian) was 13.1 µM. The TGI (IGROV1 ovarian) was 35.1 µM, the GI50 (MDA-MB-435) was 2.29 µM and the TGI (MDA-MB-435) was 5.78 µM. It also gave a GI50 (A498 renal) of 12.4 µM, a TGI (A498 renal) greater than 100 µM and a GI50 (HOP-92 NSCLC) of 1.48 µM. For the same molecule, the TGI (HOP-92 NSCLC) was 13.8 µM, the GI50 (MOLT-4 leukemia) was 8.13 µM and the TGI (MOLT-4 leukemia) was 28 µM. For the same molecule, the GI50 (SK-MEL-2 melanoma) was 12.6 µM, the TGI (SK-MEL-2 melanoma) was 26.2 µM and the GI50 (HL-60(TB) leukemia) was 16.3 µM. The TGI (HL-60(TB) leukemia) was 44.2 µM, the GI50 (SK-MEL-5 melanoma) was 1.55 µM and the TGI (SK-MEL-5 melanoma) was 2.93 µM. The GI50 (DU-145 prostate) was 18.4 µM, the TGI (DU-145 prostate) was 47.7 µM and the GI50 (OVCAR-3 ovarian) was 14 µM. It also gave a TGI (OVCAR-3 ovarian) of 33.2 µM, a GI50 (PC-3 prostate) of 13.8 µM and a TGI (PC-3 prostate) of 37.9 µM. For the same molecule, the GI50 (U251 CNS) was 3.4 µM, the TGI (U251 CNS) was 12.6 µM and the GI50 (UACC-257 melanoma) was 1.79 µM. For the same molecule, the TGI (UACC-257 melanoma) was 3.65 µM, the GI50 (KM12 colon) was 12.5 µM and the TGI (KM12 colon) was 28.1 µM. The GI50 (OVCAR-5 ovarian) was 16.5 µM, the TGI (OVCAR-5 ovarian) was 38.2 µM and the GI50 (NCI-H23 lung) was 14 µM. The TGI (NCI-H23 lung) was 34.3 µM, the GI50 (HS 578T breast) was 13.3 µM and the TGI (HS 578T breast) was 32.1 µM. For the same molecule, the GI50 (NCI/ADR-RES ovarian) was 30.7 µM, the TGI (NCI/ADR-RES ovarian) was greater than 100 µM and the GI50 (UO-31 renal) was 15.5 µM. It also gave a TGI (UO-31 renal) of 40.6 µM, a GI50 (CCRF-CEM leukemia) of 4.38 µM and a TGI (CCRF-CEM leukemia) of 34 µM. For the same molecule, the GI50 (NCI-H460 lung) was 9.54 µM, the TGI (NCI-H460 lung) was 22.3 µM and the GI50 (NCI-H522 lung) was 4.4 µM. It also gave a TGI (NCI-H522 lung) of 16.2 µM, a GI50 (RPMI-8226 leukemia) of 12.4 µM and a TGI (RPMI-8226 leukemia) of 38.8 µM. For the same molecule, the GI50 (M14 melanoma) was 2.08 µM, the TGI (M14 melanoma) was 3.85 µM and the GI50 (A549 NSCLC) was 11.3 µM.
